Source: ChEMBL document CHEMBL1201862, “PubChem BioAssay data set” (2004)
Calls of active or inactive are those of the source.

What was measured:
Aminopeptidase N = molecular target: T1, Aminopeptidase N (Plasmodium falciparum FcB1/Columbia, UniProt O96935); experiment: P. falciparum M1AAP inhibitors, biochemical, fluorogenic H-Leu-NHMec substrate, 1536-well (AID 1445); design: species or system Plasmodium falciparum 3D7, 3D7
T1 sequence (O96935 whole entry): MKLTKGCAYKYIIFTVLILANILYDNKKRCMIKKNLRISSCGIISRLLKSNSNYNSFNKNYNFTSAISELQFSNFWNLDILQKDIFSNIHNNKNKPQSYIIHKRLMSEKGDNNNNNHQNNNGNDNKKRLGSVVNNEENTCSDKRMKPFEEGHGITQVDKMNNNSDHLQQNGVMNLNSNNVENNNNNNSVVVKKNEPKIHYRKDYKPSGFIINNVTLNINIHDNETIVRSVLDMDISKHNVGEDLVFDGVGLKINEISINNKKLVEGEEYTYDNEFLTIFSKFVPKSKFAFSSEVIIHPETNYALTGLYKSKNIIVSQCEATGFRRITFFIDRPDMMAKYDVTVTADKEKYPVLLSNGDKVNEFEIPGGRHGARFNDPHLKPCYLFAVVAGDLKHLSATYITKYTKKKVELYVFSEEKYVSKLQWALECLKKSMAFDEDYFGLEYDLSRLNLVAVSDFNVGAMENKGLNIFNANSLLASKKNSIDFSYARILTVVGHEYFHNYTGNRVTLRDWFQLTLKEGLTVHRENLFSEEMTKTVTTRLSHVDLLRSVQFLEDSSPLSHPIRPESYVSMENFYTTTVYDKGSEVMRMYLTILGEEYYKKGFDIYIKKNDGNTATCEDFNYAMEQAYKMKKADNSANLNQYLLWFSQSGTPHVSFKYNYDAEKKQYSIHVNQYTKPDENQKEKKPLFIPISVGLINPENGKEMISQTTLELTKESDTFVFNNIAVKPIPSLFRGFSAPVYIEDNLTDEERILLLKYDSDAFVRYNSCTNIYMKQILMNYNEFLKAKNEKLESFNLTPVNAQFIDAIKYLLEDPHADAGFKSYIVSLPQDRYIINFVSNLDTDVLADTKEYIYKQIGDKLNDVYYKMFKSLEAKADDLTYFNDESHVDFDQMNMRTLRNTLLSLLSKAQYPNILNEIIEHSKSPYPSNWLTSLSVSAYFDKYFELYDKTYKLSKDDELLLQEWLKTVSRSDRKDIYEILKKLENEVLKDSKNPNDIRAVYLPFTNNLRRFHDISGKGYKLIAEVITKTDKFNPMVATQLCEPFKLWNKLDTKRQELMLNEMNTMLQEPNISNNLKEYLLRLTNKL

[1] = molecular target: T2, Corticotropin-releasing factor receptor 2/Corticotropin-releasing factor-binding protein (Homo sapiens, UniProt P24387+Q13324); experiment: Dose Response confirmation of uHTS hits for small molecule antagonists of the CRF-binding protein and CRF-R2 receptor complex.; format: functional; details: read-out: IC50_Mean
T2 sequence (Q13324 whole entry): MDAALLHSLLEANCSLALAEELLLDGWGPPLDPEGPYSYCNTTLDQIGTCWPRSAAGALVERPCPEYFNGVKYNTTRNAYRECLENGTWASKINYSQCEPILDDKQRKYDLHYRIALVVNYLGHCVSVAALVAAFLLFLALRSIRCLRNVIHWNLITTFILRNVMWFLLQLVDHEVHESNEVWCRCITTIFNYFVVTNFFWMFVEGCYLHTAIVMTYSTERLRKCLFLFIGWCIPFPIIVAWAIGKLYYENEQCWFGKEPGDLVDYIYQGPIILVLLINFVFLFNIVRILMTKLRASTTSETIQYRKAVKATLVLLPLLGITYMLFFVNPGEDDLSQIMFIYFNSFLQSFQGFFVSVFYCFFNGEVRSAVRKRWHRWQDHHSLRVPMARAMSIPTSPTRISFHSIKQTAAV
T2 sequence (P24387 whole entry): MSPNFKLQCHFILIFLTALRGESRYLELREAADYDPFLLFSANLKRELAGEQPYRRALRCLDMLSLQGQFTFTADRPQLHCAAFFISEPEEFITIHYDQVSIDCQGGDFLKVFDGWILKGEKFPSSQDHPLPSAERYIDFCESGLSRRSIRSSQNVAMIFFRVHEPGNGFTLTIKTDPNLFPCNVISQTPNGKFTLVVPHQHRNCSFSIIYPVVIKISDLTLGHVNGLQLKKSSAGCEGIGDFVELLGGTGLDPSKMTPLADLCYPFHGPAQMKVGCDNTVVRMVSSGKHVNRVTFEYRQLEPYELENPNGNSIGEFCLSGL

[2] = molecular target: T2, Corticotropin-releasing factor receptor 2/Corticotropin-releasing factor-binding protein; experiment: activators of CRF receptor 2 with binding protein – uHTS hits, confirmation (AID 602473); format: functional; details: read-out: EC50_Mean
Kallikrein-7 = Kallikrein-7 (Homo sapiens, UniProt P49862); experiment: Fluorescence Intensity-based biochemical primary high throughput dose response assay to identify activators of kallikrein-7 (K7) zymogen.
Sequence of Kallikrein-7 (P49862 whole entry): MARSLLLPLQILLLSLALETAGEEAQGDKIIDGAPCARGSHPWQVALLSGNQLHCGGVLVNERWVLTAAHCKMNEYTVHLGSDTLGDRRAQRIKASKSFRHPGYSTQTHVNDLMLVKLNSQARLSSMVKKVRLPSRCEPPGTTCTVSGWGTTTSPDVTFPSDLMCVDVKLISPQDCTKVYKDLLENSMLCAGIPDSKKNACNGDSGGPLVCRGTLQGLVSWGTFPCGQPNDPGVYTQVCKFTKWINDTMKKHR

[3] = molecular target: T3, Microphthalmia-associated transcription factor (Homo sapiens, UniProt O75030); experiment: TRPM1 promoter luciferase signal decrease, dose response, MITF inhibitor project, cell-based, SK-MEL-5, cherry-picked, set 3 (AID 493073); format: functional
T3 sequence (O75030 whole entry): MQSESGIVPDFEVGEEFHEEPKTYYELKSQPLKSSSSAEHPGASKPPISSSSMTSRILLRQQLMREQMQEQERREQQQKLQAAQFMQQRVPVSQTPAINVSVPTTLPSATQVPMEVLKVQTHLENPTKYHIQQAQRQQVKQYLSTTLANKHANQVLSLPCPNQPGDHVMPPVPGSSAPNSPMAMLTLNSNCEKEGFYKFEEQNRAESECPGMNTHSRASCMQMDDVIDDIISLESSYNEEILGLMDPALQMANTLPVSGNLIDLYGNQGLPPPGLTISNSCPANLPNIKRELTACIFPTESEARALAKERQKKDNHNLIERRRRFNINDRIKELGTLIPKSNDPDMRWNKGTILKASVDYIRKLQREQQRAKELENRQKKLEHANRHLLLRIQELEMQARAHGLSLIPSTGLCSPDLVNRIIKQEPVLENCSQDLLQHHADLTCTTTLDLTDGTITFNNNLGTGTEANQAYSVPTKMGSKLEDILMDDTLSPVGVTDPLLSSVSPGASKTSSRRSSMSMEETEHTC

Paired box protein Pax-8 = Paired box protein Pax-8 (Homo sapiens, UniProt Q06710); experiment: inhibitors of PAX8-driven TPO luciferase reporter, dose response, RMG-I cells, cherry-pick (AID 687027); format: functional, cell-based;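 further: luciferase reporter driven by Pax8 target thyroperoxidase promoter measured by SteadyGlo luminescence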
Sequence of Paired box protein Pax-8 (Q06710 whole entry): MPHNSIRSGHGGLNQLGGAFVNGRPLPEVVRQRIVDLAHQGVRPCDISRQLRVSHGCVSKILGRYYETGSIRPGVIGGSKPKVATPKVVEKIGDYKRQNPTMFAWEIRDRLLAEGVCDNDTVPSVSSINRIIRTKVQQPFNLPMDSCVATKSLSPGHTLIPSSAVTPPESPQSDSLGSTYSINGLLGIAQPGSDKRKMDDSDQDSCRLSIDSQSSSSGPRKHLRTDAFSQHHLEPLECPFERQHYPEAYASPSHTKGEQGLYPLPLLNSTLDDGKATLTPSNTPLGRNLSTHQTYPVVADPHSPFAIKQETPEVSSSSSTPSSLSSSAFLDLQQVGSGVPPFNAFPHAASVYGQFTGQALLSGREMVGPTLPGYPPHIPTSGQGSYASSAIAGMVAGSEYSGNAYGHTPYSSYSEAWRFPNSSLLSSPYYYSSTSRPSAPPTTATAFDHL

[4] = A549 cell cytotoxicity, dose response, cytotoxicity control, plate reader, cherry-pick, antagonist series (AID 743412); format: functional, cell-based
[5] = HepG2 cell cytotoxicity, dose response, cytotoxicity control, plate reader, cherry-pick, antagonist series (AID 743416); format: functional, cell-based
[6] = LGR2 antagonists, dose response, cell-based, HEK293, CRE-luciferase reporter, cherry pick, set 2 (AID 743343); format: functional;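 further: transfected cells were stimulated with diluted bursicon conditioned medium after compound addition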
[7] = MC4R antagonists, dose response, counter-screen for LGR2 antagonist project, cell-based, plate reader, cherry pick (AID 743444); format: functional;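 further: transfected HEK 293 cells stimulated with alpha-MSH peptide; potency of inhibitors of the alpha-MSH evoked signal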
[8] = HEK293 cell cytotoxicity, dose response, cytotoxicity control, plate reader, cherry-picked samples (AID 743446); format: functional, cell-based
[9] = molecular target: T4, Polyadenylate-binding protein 1 (Homo sapiens, UniProt P11940); experiment: PABP1 MLLE–PAM2 interaction inhibitors, dose response, miRNA deadenylation inhibitor project, biochemical, fluorescence polarization, Cy5-PAM2 peptide, secondary (AID 602260); format: functional; details: read-out: IC50_Mean
T4 sequence (P11940 whole entry): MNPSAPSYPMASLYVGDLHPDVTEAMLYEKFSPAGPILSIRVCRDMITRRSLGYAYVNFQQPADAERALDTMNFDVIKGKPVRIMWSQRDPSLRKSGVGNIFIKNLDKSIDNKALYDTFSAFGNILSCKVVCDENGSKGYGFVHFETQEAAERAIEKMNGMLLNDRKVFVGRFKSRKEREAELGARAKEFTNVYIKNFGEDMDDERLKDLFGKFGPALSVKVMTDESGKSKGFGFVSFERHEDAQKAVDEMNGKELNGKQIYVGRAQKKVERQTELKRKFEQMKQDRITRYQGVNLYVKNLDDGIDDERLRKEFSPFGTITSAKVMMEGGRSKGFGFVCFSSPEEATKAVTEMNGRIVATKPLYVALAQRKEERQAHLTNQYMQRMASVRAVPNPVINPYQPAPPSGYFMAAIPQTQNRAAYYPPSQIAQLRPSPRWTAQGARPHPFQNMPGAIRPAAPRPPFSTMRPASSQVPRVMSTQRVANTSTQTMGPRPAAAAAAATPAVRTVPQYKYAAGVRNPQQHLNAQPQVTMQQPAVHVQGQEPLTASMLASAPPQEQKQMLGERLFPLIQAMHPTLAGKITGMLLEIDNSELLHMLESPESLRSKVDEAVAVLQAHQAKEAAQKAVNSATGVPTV

[10] = molecular target: T4, Polyadenylate-binding protein 1; experiment: PABP1 MLLE–PAM2 binding inhibitor potency, dose response, biochemical, fluorescence polarization, FITC-PAM2 peptide (AID 602259); format: functional; details: read-out: IC50_Mean
Nonstructural protein 1 = Nonstructural protein 1 (Influenza A virus, UniProt Q194T2); format: functional, Influenza A virus (A/California/07/2009(H1N1))
Sequence of Nonstructural protein 1 (Q194T2 whole entry): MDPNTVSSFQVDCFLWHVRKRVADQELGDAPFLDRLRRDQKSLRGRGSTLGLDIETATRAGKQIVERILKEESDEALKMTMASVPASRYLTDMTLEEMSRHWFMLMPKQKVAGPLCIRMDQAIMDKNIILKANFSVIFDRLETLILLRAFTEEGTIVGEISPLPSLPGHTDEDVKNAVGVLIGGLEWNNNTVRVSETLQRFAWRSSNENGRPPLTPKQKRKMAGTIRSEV

[11] = molecular target: T5, Histone-lysine N-methyltransferase NSD2 (Homo sapiens, UniProt O96028); format: biochemical
T5 sequence (O96028 whole entry): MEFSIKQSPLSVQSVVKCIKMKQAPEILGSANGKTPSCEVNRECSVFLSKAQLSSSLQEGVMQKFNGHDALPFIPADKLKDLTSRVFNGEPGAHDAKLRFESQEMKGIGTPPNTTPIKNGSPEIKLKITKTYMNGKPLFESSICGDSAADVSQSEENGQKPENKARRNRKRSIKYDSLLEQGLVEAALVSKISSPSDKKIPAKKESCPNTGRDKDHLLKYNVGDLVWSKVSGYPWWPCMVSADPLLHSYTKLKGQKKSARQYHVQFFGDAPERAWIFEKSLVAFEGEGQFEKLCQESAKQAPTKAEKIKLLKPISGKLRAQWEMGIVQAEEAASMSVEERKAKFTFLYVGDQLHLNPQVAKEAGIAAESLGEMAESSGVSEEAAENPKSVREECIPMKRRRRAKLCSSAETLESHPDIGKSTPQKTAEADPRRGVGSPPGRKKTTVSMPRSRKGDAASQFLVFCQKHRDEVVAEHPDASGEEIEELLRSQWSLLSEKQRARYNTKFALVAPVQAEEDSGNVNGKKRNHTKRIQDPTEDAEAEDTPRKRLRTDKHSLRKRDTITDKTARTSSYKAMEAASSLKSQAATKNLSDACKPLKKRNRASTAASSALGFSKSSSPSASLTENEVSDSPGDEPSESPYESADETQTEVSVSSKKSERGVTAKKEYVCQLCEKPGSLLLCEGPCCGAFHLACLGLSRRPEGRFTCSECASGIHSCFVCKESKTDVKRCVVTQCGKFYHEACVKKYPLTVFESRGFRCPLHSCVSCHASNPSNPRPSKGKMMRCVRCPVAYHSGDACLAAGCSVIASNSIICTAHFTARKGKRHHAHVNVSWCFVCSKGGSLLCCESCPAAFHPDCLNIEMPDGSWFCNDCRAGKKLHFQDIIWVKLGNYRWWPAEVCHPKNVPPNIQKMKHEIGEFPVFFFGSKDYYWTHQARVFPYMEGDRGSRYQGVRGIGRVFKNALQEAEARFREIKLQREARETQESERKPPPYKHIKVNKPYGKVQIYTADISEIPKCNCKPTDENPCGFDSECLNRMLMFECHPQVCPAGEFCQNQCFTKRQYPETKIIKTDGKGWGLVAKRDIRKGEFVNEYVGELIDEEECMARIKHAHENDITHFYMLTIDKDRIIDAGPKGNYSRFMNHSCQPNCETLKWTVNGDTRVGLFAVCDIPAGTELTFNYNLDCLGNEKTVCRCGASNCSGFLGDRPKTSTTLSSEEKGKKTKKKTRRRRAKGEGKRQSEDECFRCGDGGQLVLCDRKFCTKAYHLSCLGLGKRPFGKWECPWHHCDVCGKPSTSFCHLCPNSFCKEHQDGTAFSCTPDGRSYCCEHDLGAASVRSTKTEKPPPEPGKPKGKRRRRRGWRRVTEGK

[12] = human group III sPLA2 inhibitors, dose response, biochemical, QFRET, IC50 (AID 743457);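 further: green fluorescence rise as the enzyme cleaves BODIPY PC-A2 in liposomes; potency for inhibition of the enzyme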
[13] = Shn3 3'UTR reporter inhibitors, dose response, cell-based, Clone20 osteoblasts, firefly luciferase, cherry-picked (AID 624132); format: functional;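 further: firefly luciferase luminescence from reporter carrying the Shn3 3'UTR in osteoblasts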
[14] = HepG2 cell cytotoxicity, dose response, cytotoxicity control for Shn3 inhibitor project, CellTiter-Glo, cherry-picked (AID 624134); format: functional, cell-based
[15] = control 3'UTR Renilla luciferase suppression, dose response, counter-screen for Shn3 inhibitor project, cell-based, Clone20-Shn3RL, cherry-picked (AID 624133); format: functional
[16] = cytotoxicity in OVCAR8 ovarian cancer cells, dose response, PAX8 project, cell-based, plate reader, dry powder samples (AID 743197); format: functional; details: OVCAR-8
[17] = NIH:OVCAR-3 ovarian cancer cell cytotoxicity, dose response, PAX8 inhibitor project, plate reader, dry powder samples (AID 743044); format: functional, cell-based

CC(=O)c1ccc(-c2cccs2)s1
IC50 (Aminopeptidase N): 40 µM (active) | IC50 [1]: > 47.1 µM (inactive) | EC50 [2]: > 53 µM (inactive)

CCCC(=O)Nc1c(-c2ccc(OC)cc2)c(=O)c2ccccc2n1C
EC50 (Kallikrein-7): 49.5 µM (inactive)

Cn1nnnc1Sc1ncnc2scc(-c3ccsc3)c12
AC50 [3]: 7.95 µM (active) | AC50 (Paired box protein Pax-8): 2.56 µM (active) | AC50 [4]: 9.63 µM (active) | AC50 [5]: 10.9 µM (active) | AC50 [6]: 6.32 µM (active) | AC50 [7]: 8.27 µM (active) | AC50 [8]: 9.67 µM (active)

CCOC(=O)C1CCN(c2[nH]cnc3c4c(OC)cccc4nc2-3)CC1
EC50 (Kallikrein-7): 8.33 µM (active)

CC1=C(C#N)C(c2cccnc2)C2=C(O)CC(C)(C)CC2=N1 (stereo not given)
EC50 (Kallikrein-7): > 69.5 µM (inactive)

CN1C=CC2=C(C#N)C(N)C(C#N)(C#N)[C@H](c3ccccc3)[C@H]2C1 (stereo not given in full)
IC50 [9]: > 66 µM (inactive) | IC50 [10]: 58.9 µM (inactive) | EC50 (Kallikrein-7): > 69.5 µM (inactive)

CN(C1=C(N2CCOCC2)C(=O)c2ccccc2C1=O)c1ccccc1
IC50 (Nonstructural protein 1): 11.9 µM (active) | AC50 [11]: 4.86 µM (active) | IC50 [12]: > 122 µM (inactive)

CCC(CC)CC1CN2CCc3cc(OC)c(OC)cc3C2CC1(O)CC (stereo not given)
AC50 [13]: 2 µM (active) | AC50 [14]: > 70 µM (inactive) | AC50 [15]: 3.89 µM (active) | EC50 (Kallikrein-7): 8.32 µM (active)

Oc1nc2ccccc2n1C1CCN(C(CCc2ccccc2)c2nnnn2C2CCCC2)CC1 (stereo not given)
AC50 [4]: 13.3 µM (active) | AC50 [5]: 22.4 µM (active) | AC50 [6]: 20.3 µM (active) | AC50 [7]: 18.4 µM (active) | AC50 [8]: 14.1 µM (active)

C[C@@H]1CCCCO[C@H](CN(C)Cc2ccc(C(F)(F)F)cc2)[C@H](C)CN([C@H](C)CO)C(=O)c2cc(NS(=O)(=O)c3ccccc3)ccc2O1
AC50 (Paired box protein Pax-8): 6.88 µM (active) | AC50 [16]: > 70 µM (inactive)

C[C@H]1CCCCO[C@@H](CN(C)Cc2ccncc2)[C@@H](C)CN([C@@H](C)CO)C(=O)c2cc(NC(=O)Nc3ccc(C(F)(F)F)cc3)ccc2O1
AC50 (Paired box protein Pax-8): 7.3 µM (active) | AC50 [16]: > 70 µM (inactive)

O=C(Nc1ccccc1)N1CCCCN2[C@H](C1)[C@@H](c1ccc(C#Cc3ccccc3)cc1)[C@@H]2CO
AC50 (Paired box protein Pax-8): 10.5 µM (active) | AC50 [17]: 26 µM (active) | AC50 [16]: 26 µM (active)
